{
  "source": "patent US20240409585A1",
  "about": "“MACROCYCLIC IMMUNOMODULATORS” (priority 2021, published 2024)",
  "note": "Bridge positions count the residues as written; N and C are the ends. Square brackets hold non-standard residues; d marks the D form. Peptide text beside a SMILES is read from it. * marks the point of attachment. ξ: configuration not given here. Phe(4-COOH) = N[C@@H](Cc1ccc(C(=O)O)cc1)C(=O)O; Bip = N[C@@H](Cc1ccc(-c2ccccc2)cc1)C(=O)O; Phe(3-Cl) = N[C@@H](Cc1cccc(Cl)c1)C(=O)O; Phe(3-OMe) = COc1cccc(C[C@H](N)C(=O)O)c1; Phe(3-Me) = Cc1cccc(C[C@H](N)C(=O)O)c1; Val(3-OH) = CC(C)(O)[C@H](N)C(=O)O; 4Pal = N[C@@H](Cc1ccncc1)C(=O)O; Cha = N[C@@H](CC1CCCCC1)C(=O)O; Cit = NC(=O)NCCC[C@H](N)C(=O)O; Ile(3ξ) = CCC(C)[C@H](N)C(=O)O; Thr(3ξ) = CC(O)[C@H](N)C(=O)O; Pip = O=C(O)[C@@H]1CCCCN1; Carboxymethyl = O=C(O)C*; NMeA = CN[C@@H](C)C(=O)O; Orn = NCCC[C@H](N)C(=O)O; Dab = NCC[C@H](N)C(=O)O; Dap = NC[C@H](N)C(=O)O",
  "data": [
    {"biological_target": "T1, PE-labeled human PD-L1-Ig binding to Jurkat cell line over-expressing human PD-1 (Jurkat-PD-1) (Homo sapiens, UniProt Q15116)", "T1 construct": "expressed in transfected cells; host or cells: Jurkat", "T1 sequence (Q15116 25-288)": "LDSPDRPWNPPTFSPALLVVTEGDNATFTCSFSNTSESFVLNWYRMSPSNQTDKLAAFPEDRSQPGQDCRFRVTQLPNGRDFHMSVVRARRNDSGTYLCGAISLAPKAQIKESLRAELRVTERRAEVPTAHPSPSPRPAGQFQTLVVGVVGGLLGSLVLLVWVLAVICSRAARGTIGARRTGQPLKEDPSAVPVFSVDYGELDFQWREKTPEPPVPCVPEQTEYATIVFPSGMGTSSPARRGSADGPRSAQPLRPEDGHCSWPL", "test": "Jurkat-PD-1 Cell Binding High-Content Screening Assay (CBA): Method 1", "settings": "Jurkat-hPD-1 cells, PE-labeled PD-L1-Ig 20 nM final; read-out: Jurkat HPDL1 PD1 IC50 (uM) (Method 1)", "units": {"IC50": "µM"}, "values": [
      {"compound": "COc1cccc(C[C@@H]2NC(=O)[C@H](CC(=O)O)NC(=O)[C@H](Cc3ccc(O)cc3)NC(=O)[C@H](CC(N)=O)NC(=O)CSC[C@@H](C(=O)N[C@@H](C)C(N)=O)NC(=O)[C@H]([C@@H](C)O)NC(=O)[C@H](C(C)C)NC(=O)[C@H](CC(C)C)NC(=O)[C@H](CCCNC(N)=O)NC(=O)[C@@H](CC(C)C)NC(=O)[C@H](C)N(C)C(=O)[C@H](CCCNC(=N)N)NC(=O)[C@H](Cc3ccc(-c4ccccc4)cc3)NC(=O)[C@H](C(C)C)NC2=O)c1", "note": "[Compound 1191] ({CH2CO}-NYD[Phe(3-OMe)]V[Bip]R[NMeA][dL][Cit]LVTCA-NH2; thioether N-14)", "IC50": 0.07},
      {"compound": "CC(C)C[C@@H]1NC(=O)[C@H](CCCNC(=N)N)NC(=O)[C@@H](CC(C)C)NC(=O)[C@H](C)N(C)C(=O)[C@H](CCCNC(=N)N)NC(=O)[C@H](Cc2ccc(-c3ccccc3)cc2)NC(=O)[C@H](C(C)C)NC(=O)[C@H](Cc2cccc(Cl)c2)NC(=O)[C@H](CC(=O)O)NC(=O)[C@H](Cc2ccc(O)cc2)NC(=O)[C@H](CC(N)=O)NC(=O)CSC[C@@H](C(=O)N[C@@H](C)C(N)=O)NC(=O)[C@H]([C@@H](C)O)NC(=O)[C@H](C(C)C)NC1=O", "note": "[Compound 1127] ({CH2CO}-NYD[Phe(3-Cl)]V[Bip]R[NMeA][dL]RLVTCA-NH2; thioether N-14)", "IC50": 0.09},
      {"compound": "Cc1cccc(C[C@@H]2NC(=O)[C@H](CC(=O)O)NC(=O)[C@H](Cc3ccc(C(=O)O)cc3)NC(=O)[C@H](Cc3ccncc3)NC(=O)CSC[C@@H](C(N)=O)NC(=O)[C@H](CCCN)NC(=O)[C@H](C(C)C)NC(=O)[C@H](CC3CCCCC3)NC(=O)[C@H](CCN)NC(=O)[C@@H](CC(C)C)NC(=O)[C@H](C)N(C)C(=O)[C@H](CCCNC(N)=O)NC(=O)[C@H](Cc3ccc(-c4ccccc4)cc3)NC(=O)[C@H](C(C)C)NC2=O)c1", "note": "[Compound 1897] ({CH2CO}-[4Pal][Phe(4-COOH)]D[Phe(3-Me)]V[Bip][Cit][NMeA][dL][Dab][Cha]V[Orn]C-NH2; thioether N-14)", "IC50": 0.01},
      {"compound": "CC(C)C[C@@H]1NC(=O)[C@H](Cc2c[nH]c3ccccc23)NC(=O)[C@H](CC(=O)O)NC(=O)[C@H](Cc2ccc(OCC(=O)O)cc2)NC(=O)[C@H](Cc2ccccc2)NC(=O)CSC[C@@H](C(N)=O)NC(=O)[C@H](CO)NC(=O)[C@H](C(C)C)NC(=O)[C@H](CC(C)C)NC(=O)[C@H](CC(N)=O)NC(=O)[C@@H](CC(C)C)NC(=O)[C@H](C)N(C)C(=O)[C@H](CCC(=O)O)NC(=O)[C@H](Cc2ccc(-c3ccccc3)cc2)NC1=O", "note": "[Compound 1628] ({CH2CO}-FY(Carboxymethyl)DWL[Bip]E[NMeA][dL]NLVSC-NH2; thioether N-14)", "IC50": 0.09},
      {"compound": "Cc1cccc(C[C@@H]2NC(=O)[C@H](CC(=O)O)NC(=O)[C@H](Cc3ccc(O)cc3)NC(=O)[C@H](CN)NC(=O)CSC[C@@H](C(=O)N[C@@H](C)C(N)=O)NC(=O)[C@H]([C@@H](C)O)NC(=O)[C@H](C(C)C)NC(=O)[C@H](CC(C)C)NC(=O)[C@H](CCN)NC(=O)[C@@H](CC(C)C)NC(=O)[C@H](C)N(C)C(=O)[C@H](CCCNC(N)=O)NC(=O)[C@H](Cc3ccc(-c4ccccc4)cc3)NC(=O)[C@H](C(C)C)NC2=O)c1", "note": "[Compound 1422] ({CH2CO}-[Dap]YD[Phe(3-Me)]V[Bip][Cit][NMeA][dL][Dab]LVTCA-NH2; thioether N-14)", "IC50": 0.05},
      {"compound": "CC(C)C[C@@H]1NC(=O)[C@H](CCCCN)NC(=O)[C@@H](CC(C)C)NC(=O)[C@H](C)N(C)C(=O)[C@H](Cc2cnc[nH]2)NC(=O)[C@H](Cc2ccc(-c3ccccc3)cc2)NC(=O)[C@H](C(C)C)NC(=O)[C@H](Cc2c[nH]c3ccccc23)NC(=O)[C@H](CC(=O)O)NC(=O)[C@H](Cc2ccc(O)cc2)NC(=O)[C@H](CC(N)=O)NC(=O)CSC[C@@H](C(=O)NCC(N)=O)NC(=O)[C@H]([C@@H](C)O)NC(=O)[C@H](C(C)C)NC1=O", "note": "[Compound 1484] ({CH2CO}-NYDWV[Bip]H[NMeA][dL]KLVTCG-NH2; thioether N-14)", "IC50": 0.07},
      {"compound": "CCC(C)[C@@H]1NC(=O)[C@H](Cc2ccc(-c3ccccc3)cc2)NC(=O)[C@H](CCC(=O)O)NC(=O)[C@H](Cc2c[nH]c3ccccc23)NC(=O)[C@H](CC(N)=O)NC(=O)[C@H](Cc2ccc(O)cc2)NC(=O)[C@H](Cc2ccncc2)NC(=O)CSC[C@@H](C(=O)N[C@@H](C)C(N)=O)NC(=O)[C@H](C(C)O)NC(=O)[C@H](CCN)NC(=O)[C@H](CC(C)C)NC(=O)[C@H](CC(N)=O)NC(=O)[C@@H](CC(C)C)NC(=O)[C@H](C)N(C)C1=O", "note": "(stereo partly drawn) [Compound 2059] ({CH2CO}-[4Pal]YNWE[Bip][Ile(3ξ)][NMeA][dL]NL[Dab][Thr(3ξ)]CA-NH2; thioether N-14)", "IC50": 0.74},
      {"compound": "Cc1cccc(C[C@@H]2NC(=O)[C@H](CC(=O)O)NC(=O)[C@H](Cc3ccc(OCC(=O)O)cc3)NC(=O)[C@H]([C@@H](C)O)NC(=O)CSC[C@@H](C(N)=O)NC(=O)[C@H]([C@@H](C)O)NC(=O)[C@H](C(C)C)NC(=O)[C@H](CC3CCCCC3)NC(=O)[C@H](CCN)NC(=O)[C@@H](CC(C)C)NC(=O)[C@H](C)N(C)C(=O)[C@H](Cc3ccc(OCC(=O)O)cc3)NC(=O)[C@H](Cc3ccc(-c4ccccc4)cc3)NC(=O)[C@H](Cc3ccc(OCC(=O)O)cc3)NC2=O)c1", "note": "[Compound 1672] ({CH2CO}-TY(Carboxymethyl)D[Phe(3-Me)]Y(Carboxymethyl)[Bip]Y(Carboxymethyl)[NMeA][dL][Dab][Cha]VTC-NH2; thioether N-14)", "IC50": 0.09},
      {"compound": "CC(C)C[C@@H]1NC(=O)[C@H](CCN)NC(=O)[C@@H](CC(C)C)NC(=O)[C@H](C)N(C)C(=O)[C@H](CC(N)=O)NC(=O)[C@H](Cc2ccc(-c3ccccc3)cc2)NC(=O)[C@H](C(C)C)NC(=O)[C@H](Cc2c[nH]c3ccccc23)NC(=O)[C@H](CC(=O)O)NC(=O)[C@H](Cc2ccc(O)cc2)NC(=O)[C@H](CC(N)=O)NC(=O)CSC[C@@H](C(=O)N[C@@H](C)C(N)=O)NC(=O)[C@H]([C@@H](C)O)NC(=O)[C@H](C(C)C)NC1=O", "note": "[Compound 1259] ({CH2CO}-NYDWV[Bip]N[NMeA][dL][Dab]LVTCA-NH2; thioether N-14)", "IC50": 0.11},
      {"compound": "CC(C)C[C@@H]1NC(=O)[C@H](CCCNC(=N)N)NC(=O)[C@@H](C)NC(=O)[C@H](C)N(C)C(=O)[C@H](C(C)C)NC(=O)[C@H](Cc2ccc(-c3ccccc3)cc2)NC(=O)[C@H](C(C)C)NC(=O)[C@H](Cc2c[nH]c3ccccc23)NC(=O)[C@H](CC(=O)O)NC(=O)[C@H](Cc2ccc(O)cc2)NC(=O)[C@H](Cc2ccccc2)NC(=O)CSC[C@@H](C(=O)N[C@@H](C)C(N)=O)NC(=O)[C@H](CO)NC(=O)[C@H](C(C)C)NC1=O", "note": "[Compound 1779] ({CH2CO}-FYDWV[Bip]V[NMeA][dA]RLVSCA-NH2; thioether N-14)", "IC50": 0.07},
      {"compound": "Cc1cccc(C[C@@H]2NC(=O)[C@H](CC(=O)O)NC(=O)[C@H](Cc3ccc(OCC(=O)O)cc3)NC(=O)[C@H](Cc3ccncc3)NC(=O)CSC[C@@H](C(=O)N[C@@H](CN)C(N)=O)NC(=O)[C@H](C(C)O)NC(=O)[C@H](C(C)(C)O)NC(=O)[C@H](CC3CCCCC3)NC(=O)[C@H](CCN)NC(=O)[C@@H](CC(C)C)NC(=O)[C@H](C)N(C)C(=O)[C@H](CCCNC(N)=O)NC(=O)[C@H](Cc3ccc(-c4ccccc4)cc3)NC(=O)[C@H](Cc3ccc(OCC(=O)O)cc3)NC2=O)c1", "note": "(stereo partly drawn) [Compound 2168] ({CH2CO}-[4Pal]Y(Carboxymethyl)D[Phe(3-Me)]Y(Carboxymethyl)[Bip][Cit][NMeA][dL][Dab][Cha][Val(3-OH)][Thr(3ξ)]C[Dap]-NH2; thioether N-14)", "IC50": 0.03},
      {"compound": "CC(C)C[C@@H]1NC(=O)[C@H](CCN)NC(=O)[C@@H](CC(C)C)NC(=O)[C@@H]2CCCCN2C(=O)[C@H](Cc2cnc[nH]2)NC(=O)[C@H](Cc2ccc(-c3ccccc3)cc2)NC(=O)[C@H](C(C)C)NC(=O)[C@H](Cc2c[nH]c3ccccc23)NC(=O)[C@H](CC(=O)O)NC(=O)[C@H](Cc2ccc(O)cc2)NC(=O)[C@H](CC(N)=O)NC(=O)CSC[C@@H](C(=O)N[C@@H](C)C(N)=O)NC(=O)[C@H]([C@@H](C)O)NC(=O)[C@H](C(C)C)NC1=O", "note": "[Compound 1381] ({CH2CO}-NYDWV[Bip]H[Pip][dL][Dab]LVTCA-NH2; thioether N-14)", "IC50": 0.03},
      {"compound": "CC(C)C[C@H]1NC(=O)[C@H](C)N(C)C(=O)[C@H](CCCNC(N)=O)NC(=O)[C@H](Cc2ccc(-c3ccccc3)cc2)NC(=O)[C@H](C(C)C)NC(=O)[C@H](Cc2c[nH]c3ccccc23)NC(=O)[C@H](CC(=O)O)NC(=O)[C@H](Cc2ccc(O)cc2)NC(=O)[C@H](CN)NC(=O)CSC[C@@H](C(=O)N[C@@H](C)C(N)=O)NC(=O)[C@H]([C@@H](C)O)NC(=O)[C@H](C(C)C)NC(=O)[C@H](CC2CCCCC2)NC(=O)[C@H](CCCNC(=N)N)NC1=O", "note": "[Compound 1503] ({CH2CO}-[Dap]YDWV[Bip][Cit][NMeA][dL]R[Cha]VTCA-NH2; thioether N-14)", "IC50": 0.01},
      {"compound": "CC(C)C[C@@H]1NC(=O)[C@H](CCCNC(=N)N)NC(=O)[C@@H](Cc2ccccc2)NC(=O)[C@H](C)N(C)C(=O)[C@H](CCCNC(=N)N)NC(=O)[C@H](Cc2ccc(-c3ccccc3)cc2)NC(=O)[C@H](C(C)C)NC(=O)[C@H](Cc2c[nH]c3ccccc23)NC(=O)[C@H](CC(=O)O)NC(=O)[C@H](Cc2ccc(O)cc2)NC(=O)[C@H](CC(N)=O)NC(=O)CSC[C@@H](C(=O)N[C@@H](C)C(N)=O)NC(=O)[C@H](CO)NC(=O)[C@H](C(C)C)NC1=O", "note": "[Compound 1042] ({CH2CO}-NYDWV[Bip]R[NMeA][dF]RLVSCA-NH2; thioether N-14)", "IC50": 0.04},
      {"compound": "CC(C)C[C@@H]1NC(=O)[C@H](CCCNC(=N)N)NC(=O)[C@@H](CC(C)C)NC(=O)[C@H](C)N(C)C(=O)[C@H](CCC(=O)O)NC(=O)[C@H](Cc2ccc(-c3ccccc3)cc2)NC(=O)[C@H](C(C)C)NC(=O)[C@H](Cc2c[nH]c3ccccc23)NC(=O)[C@H](CC(=O)O)NC(=O)[C@H](Cc2ccc(O)cc2)NC(=O)[C@H](CC(N)=O)NC(=O)CSC[C@@H](C(=O)N[C@@H](C)C(N)=O)NC(=O)[C@H]([C@@H](C)O)NC(=O)[C@H](C(C)C)NC1=O", "note": "[Compound 1254] ({CH2CO}-NYDWV[Bip]E[NMeA][dL]RLVTCA-NH2; thioether N-14)", "IC50": 0.03}
    ]}
  ]
}
